The record followed here is patent US10111437B2, “Substituted guanidines as fungicides” (Nippon Soda Co., Ltd., priority 2015, dated 2018).

Structures can show the parent of a compound that is named as a salt. Some results are limits rather than exact numbers.

The subject of data set [1] is Tomato late blight fungus (Phytophthora infestans). The data set can be described thus: whole plant or invertebrate. Type of data set: in vivo. The conditions noted are these: foliar, 96 h, read-out: control value.
Data set [2] deals with Apple scab fungus (Venturia inaequalis). The data set can be described thus: Apple scab control test (foliar spray on apple seedlings). Format: in vivo. Conditions: 125 ppm active ingredient, sprayed on apple seedlings (variety Orin) before inoculation, vs untreated. The procedure: The dilution was sprayed to apple seedlings (variety “Orin”, 3 to 4 leaf stage) grown in clay pots. […] The control value was calculated by the following equation. [formula]

Data set [3] has as its system cucumber gray mold fungus (Botrytis cinerea). The data set can be described thus: Cucumber gray mold control test (foliar spray on cucumber seedlings). Conditions: in Cucumis sativus, 96 h, read-out: control value.
Data set [4] relates to wheat leaf rust fungus (Puccinia recondita). The data set can be described thus: Wheat leaf rust control test (foliar spray on wheat seedlings). Type of data set: in vivo. Conditions: 240 h, 125 ppm active ingredient, sprayed on wheat seedlings (variety Norin 61) before inoculation, 10 days, vs untreated.

In turn, `N=C(N)c1ccc(OCCCCn2ccn(CCCCOc3ccc(C(=N)N)cc3)c2=N)cc1` (as salt: hydrochloride) [compound 36, 4-[4-[3-[4-(4-carbamimidoylphenoxy)butyl]-2-imino-imidazol-1-yl]butoxy]benzamidine] had a melting point of 178 to 180 °C.
Still for that read-out and setting: in the case of `N=C(NCCCc1cc2cc(C(=N)N)ccc2o1)NCCCc1cc2cc(C(=N)N)ccc2o1` (as salt: hydrochloride) [compound 80] it was 174 to 182 °C.
For the compound `N=C(NCCCOc1ccc(C(=N)N)c(F)c1)NCCCOc1ccc(C(=N)N)c(F)c1` (as salt: hydrochloride) [compound 82], the melting point fell in the range of 181 to 185 °C.
On the same count and under the same terms, in the case of `Cc1cc(C(=N)N)ccc1OCCCCNC(=N)NCCCCOc1ccc(C(=N)N)cc1C` (as salt: hydrochloride) [compound 84] it was 171 to 180 °C; in that of `N=C(N)c1ccc(OCCCCCn2ccn(CCOc3ccc(C(=N)N)cc3)c2=N)cc1` (as salt: hydrochloride) [compound 93], 183 to 187 °C; in that of `N=C(N)c1ccc(OCCCn2ccn(CCCOc3ccc(C(=N)N)cc3Cl)c2=N)c(Cl)c1` (as salt: hydrochloride) [compound 99], 184 to 190 °C.
In turn, `N=C(N)c1ccc(OCCCn2ccn(CCCOc3ccc(C(=N)N)c(F)c3)c2=N)cc1F` (as salt: hydrochloride) [compound 103] had a melting point of 183 to 187 °C.
The same measure, in the same setting: the figure for `Cc1c(C)n(CCCOc2ccc(C(=N)N)cc2)c(=N)n1CCCOc1ccc(C(=N)N)cc1` (as salt: hydrochloride) [compound 109] is 188 to 199 °C; for `Cc1cn(CCCOc2ccc(C(=N)N)cc2)c(=N)n1CCCOc1ccc(C(=N)N)cc1` (as salt: hydrochloride) [compound 114] it is 182 to 186 °C; for `N=C(N)c1ccc(OCCCn2ccn(CCCc3cc4cc(C(=N)N)ccc4o3)c2=N)cc1` (as salt: hydrochloride) [compound 126] it is 227 to 236 °C.
Still for that read-out and setting: the figure for `N=C(NCC/C=C/c1ccc(C(=N)N)cc1)NCC/C=C/c1ccc(C(=N)N)cc1` (as salt: hydrochloride) [compound 151] is 179 to 181 °C.
In turn, `N=C(NCC#Cc1ccc(C(=N)N)cc1)NCC#Cc1ccc(C(=N)N)cc1` (as salt: hydrochloride) [compound 155] returned a melting point of 220 °C.
With `N=C(N)c1ccc(OCCCn2ccn(CCCSc3ccc(C(=N)N)cc3)c2=N)cc1` (as salt: hydrochloride) [compound 173], the melting point was in the range of 168 to 171 °C.
On the same count and under the same terms, in the case of `N=C(N)c1ccc(SCCCn2ccn(CCCSc3ccc(C(=N)N)cc3)c2=N)cc1` (as salt: hydrochloride) [compound 181] it was 169 to 172 °C; in that of `N=C(NCCOCc1ccc(C(=N)N)cc1)NCCOCc1ccc(C(=N)N)cc1` (as salt: hydrochloride) [compound 226], 262 to 267 °C.
As for `N=C(NCCCOCc1ccc(C(=N)N)cc1)NCCCOc1ccc(C(=N)N)cc1` (as salt: trifluoroacetate) [compound 143], the melting point was 192 to 197 °C.
Compound `N/C(=N\O)c1ccc(OCCCn2ccn(CCCOc3ccc(/C(N)=N/O)cc3)c2=NC(=O)C(F)(F)F)cc1` [compound 55, N-[1,3-bis[3-[4-[N′-hydroxycarbamimidoyl]phenoxy]propyl]-1,3-dihydro-2H-imidazol-2-ylidene]-2,2,2-trifluoroacetamide] gave a melting point of 187 to 201 °C.
Regarding `N=C(N)NCCCCCCCCNC(=N)NCCCCOc1ccc(C2=NCCCN2)cn1` [compound 275], the pest or weed control at 125 ppm in data set [1], in data set [2], in data set [3] and in data set [4] was not below 75% each time.
With `N=C(N)NCCCCCCCNC(=N)NCCCCOc1ccc(C2=NCC(N)CN2)cc1` (stereo not shown) [compound 277], the pest or weed control at 125 ppm in data set [1], in data set [2], in data set [3] and in data set [4] was not below 75% throughout.
In the case of `N=C(N)NCCCCCCCCNC(=N)NCCCCOc1ccc(C2=NCC(N)CN2)cc1` (stereo not shown) [compound 279], the pest or weed control at 125 ppm in data set [1], in data set [2], in data set [3] and in data set [4] was not below 75% each time.
For the compound `N=C(N)NCCCCCCCCNC(=N)NCCOc1ccc(C2=NCC(N)CN2)cc1` (stereo not shown) [compound 285], the pest or weed control at 125 ppm in data set [1], in data set [2], in data set [3] and in data set [4] was not below 75% each time.
Regarding `N=C(N)NCCCCCCCCNC(=N)NCCOc1ccc(C2=NCCCN2)nc1` [compound 288], the pest or weed control at 125 ppm in data set [1], in data set [2], in data set [3] and in data set [4] was not below 75% in each case.
Turning to `N=C(NCCCCCCCCNC1=NCCN1)NCCCOc1ccc(C(=N)N)cc1` [compound 298], the pest or weed control at 125 ppm in data set [1], in data set [2], in data set [3] and in data set [4] was not below 75% each time.
Take `CN1CCCN=C1c1ccc(OCCNC(=N)NCCCCCCCCNC(=N)N)cc1` [compound 300]: the pest or weed control at 125 ppm in data set [1], in data set [2], in data set [3] and in data set [4] was not below 75% in each case.
`N=C(N)NCCCCCCCCn1ccn(CCOc2ccc(C3=NCC(N)CN3)cc2)c1=N` (stereo not shown) [compound 302]: the pest or weed control at 125 ppm in data set [1], in data set [2], in data set [3] and in data set [4] was not below 75% in each case.
